Measured values taken from publication PMC6331910, “The Curcumin Analogue 1,5-Bis(2-hydroxyphenyl)-1,4-pentadiene-3-one Induces Apoptosis and Downregulates E6 and E7 Oncogene Expression in HPV16 and HPV18-Infected Cervical Cancer Cells” (Molecules, 2015).

System: CaSki
Assay: DNA fragmentation, Cell Death Detection ELISA (cytoplasmic nucleosomal enrichment)
Assay type: cell-based, human
Protocol: HeLa, 9 μM] at various time points. Each experiment included a set of untreated control cells (Media with DMSO alone). The enrichment of the cytoplasm of treated cells by mono- and oligonucleosomes are used to study whether enhanced DNA fragmentation is induced by diarylpentanoid treatment. This determination was made following the manufacturer’s instructions of the Cell Death Detection ELISA^PLUS kit (Roche Diagnostics, Mannheim, Germany). […] Following treatment, the cells were incubated in lysis buffer and centrifuged, after which the supernatant was transferred to streptavidin coated plates and shaken with the provided immunoreagent (mixture of anti-DNA-POD and anti-histone biotin) for 2 h. […] Enrichment factor, defined as the release of mono- and oligonucleosomes into the cytoplasm, was calculated using the formula below: (4) Enrichment factor =Absorbance of Test − Absorbance of Blank (substrate only)/Absorbance of Control − Absorbance of Blank (substrate only)

Q: For `O=C(C=Cc1ccccc1O)C=Cc1ccccc1O` [MS17, 1,5-bis(2-hydroxyphenyl)-1,4-pentadiene-3-one], which “increase in nucleosome enrichment” value (4 μM, 24 h, vs untreated) is on record?
A: 5 fold

Q: And the enrichment factor (48 h)?
A: no significant difference between doses

Q: And the enrichment factor (72 h)?
A: no significant reduction
